Source: patent US20240108722A1, “TUMOR-INFILTRATING LYMPHOCYTES WITH MEMBRANE BOUND INTERLEUKIN 15 AND USES THEREOF” (OBSIDIAN THERAPEUTICS, INC., priority 2021, published 2024)

System: regulated mbIL15 TILs
Assay: ACZ regulation of IL15 expression and signaling, phospho-flow cytometry-based assay
Format: cell-based, human
Conditions: 18 hours
Experimental: Pre-REP TILs were prepared similarly to the methods of Example 1-3 and 9, and unengineered and mbIL15 TIL generated accordingly as described in Examples 1-3 and 9. Engagement of the IL15 signaling pathway results in phosphorylation of signal transducers downstream, including the transcription factor protein STAT5 and ribosomal protein S6. […] Next, the regulated mbIL15 TILs were regulated for 18 hours in the presence of a range of concentrations of ACZ including 0.1, 1, 2.5, 5, 10, 25, 100 as well as vehicle control. The regulated mbIL15 TILs were then collected for staining and FACS analysis.
Briefly, cells were stained using antibodies for CD3, CD4, CD8, IL15 and a Live/Dead marker. Then cells were fixed in 2% formaldehyde (BD Cytofix) and permeabilized using a methanol-based buffer (BD Phospho Perm III Buffer) before staining with antibodies specific for phosphorylated STAT5 (Biolegend) and S6 (Cell Signaling Technology). Cells were acquired on the BD Symphony and analyzed using FlowJo software.
With increasing concentrations of ACZ expression of mbIL15 also increases, plateauing at around 10-25 μM of ACZ. FIG. 9A. […] FIGS. 9B-E and FIG. 10.

**Q.** With `CC(=O)Nc1nnc(S(N)(=O)=O)s1` [ACZ, acetazolamide] as the molecule, how does the “staining intensity of pSTAT5 and pS6” value (0.1-100 μM ACZ, regulated mbIL15 TILs) read?
**A.** increased with higher concentrations of ACZ

**Q.** What about the “ACZ concentration at which mbIL15 expression plateaus” value (regulated mbIL15 TILs from four human donors) of the same molecule?
**A.** 10 to 25 µM
